Laboratory results from US20200172489A1, “FLUORESCENT COMPOUND AND AUTOPHAGY DETECTION REAGENT USING SAME” (DOJINDO LABORATORIES, priority 2017, published 2020).
Counter-ions that a name gives are not always drawn.

Columns and labels:
[1] = system: HeLa cells; test: Autophagy detection test (1): fluorescent microscopy of HeLa cells after introducing the compound, with autophagy induced or inhibited; type: cell-based; settings: for fluorescent intensity in HeLa cells in the presence of Bafilomycin: Bafilomycin (0.1 μM bafilomycin A1), autophagy hardly occurs; for fluorescent intensity in HeLa cells in the presence of Bafilomycin / fluorescent intensity in HeLa cells, control group / fluorescent intensity in HeLa cells under starvation condition / change of fluorescent intensity in HeLa cells when bafilomycin was added under starvation condition: FIG. 7; for fluorescent intensity in HeLa cells, control group: Control (autophagy hardly occurs); for fluorescent intensity in HeLa cells under starvation condition: Starved; for change of fluorescent intensity in HeLa cells when bafilomycin was added under starvation condition: starvation plus bafilomycin
Method: HeLa cells were seeded on a μ-slide 8 well (Ibidi) and incubated in a CO2 incubator at 37° C. overnight. Compound 4b (1 μM) or Compound 6h (0.1 μM) diluted with serum medium was added and incubated for 30 minutes. After washing twice with serum medium, the cells were incubated at 37° C. for 6 hours or 20 hours in an amino acid-free medium of serum containing-medium and observed with a fluorescent microscope. As an autophagy inducing agent, 0.5 μM Rapamycin was used and as an autophagy inhibiting agent, 10 μM chloroquine and 0.1 μM bafilomycin A1 were used.

[2] = system: HeLa cells; test: Autophagy detection test (1): evaluation using flow cytometry; type: cell-based; settings: 1 μM; starvation condition, 6 hours and 20 hours; FIG. 3
Method: HeLa cells were seeded on a 24 well plate and incubated in a CO2 incubator at 37° C. overnight, 1 μM of Compound 4b diluted with serum medium was added and incubated for 30 minutes. After washing twice with the serum-free medium, a medium free from amino acid and serum was added and the cells were incubated at 37° C. for 6 hours or 20 hours. Cell were washed with PBS once, peeled with 0.25% trypsin-EDTA and used for flow cytometric analysis.

[3] = system: HeLa cells; test: Autophagy detection test (4): staining of HeLa cells with Compound 4b and Compound 13, fluorescent microscopy; type: cell-based; settings: Compound 4b 1 μM and Compound 13 0.1 μM; 3 hours or 6 hours; FIG. 12
Method: HeLa cells were seeded on a μ-slide 8 well (Ibidi) and incubated in a CO2 incubator at 37° C. overnight. Compound 4b (1 μM) or Compound 13 (0.1 μM) diluted with serum medium was added and incubated for 30 minutes. After washing twice with serum medium, the cells were incubated at 37° C. for 3 hours or 6 hours in an amino acid-free medium of serum containing-medium and observed with a fluorescent microscope.

[4] = pH dependence of fluorescent intensity of the fluorescent compounds; type: physicochemical; settings: for pH dependence of fluorescent intensity: FIG. 6
[5] = system: HeLa cells; test: Autophagy detection test (2): fluorescent microscopy of HeLa cells under starvation condition; type: cell-based; settings: 0.1 μM; Starve vs Control; incubated 5 hours; FIG. 10
Method: HeLa cells were seeded on a μ-slide 8 well (Ibidi) and incubated in a CO2 incubator at 37° C. overnight. Compound 6h diluted with a serum medium (0.1 μM) was added and incubated for 30 minutes. After washing twice with serum medium, the cells were incubated at 37° C. for 5 hours in an amino acid-free medium of serum containing-medium and observed with a fluorescent microscope.

[6] = system: HeLa cells; test: Autophagy detection test (3): co-staining of HeLa cells with Compound 6h and Compound 11, fluorescent microscopy; type: cell-based; settings: Compound 6h 1 μM and Compound 11 0.1 μM; 3 hours or 6 hours; FIG. 11
Method: HeLa cells were seeded on a μ-slide 8 well (Ibidi) and incubated in a CO2 incubator at 37° C. overnight. Compound 6h (1 μM) and Compound 11 (0.1 μM) diluted with serum medium was added and incubated for 30 minutes. After washing twice with serum medium, the cells were incubated at 37° C. for 3 hours or 6 hours in an amino acid-free medium of serum containing-medium and observed with a fluorescent microscope.

Row | SMILES | fluorescent intensity in HeLa cells in the presence of Bafilomycin [1] | fluorescent intensity in HeLa cells, control group [1] | fluorescent intensity in HeLa cells, autophagy induced by adding Rapamycin ([1]; Rapamycin & Chloroquine group vs Control, 0.5 μM Rapamycin, 10 μM chloroquine, incubated 6 hours and 20 hours, FIG. 2) | fluorescent intensity in HeLa cells, autophagy induced by starvation culture ([1]; Starved group vs Control, incubated 6 hours and 20 hours, FIG. 2) | fluorescent intensity in HeLa cells under starvation condition ([1]; autophagy induced) | change of fluorescent intensity in HeLa cells when bafilomycin was added under starvation condition [1] | usefulness for detecting autophagy by flow cytometry [2] | staining pattern in HeLa cells under starvation condition, two compounds introduced together [3] | pH dependence of fluorescent intensity [4] | shape of fluorescent emission in high-magnification fluorescent microscopic images ([1]; HeLa cells, autophagy induced, FIG. 8, A-1 and A-2) | fluorescent intensity in HeLa cells under starvation condition [5] | staining pattern in HeLa cells under starvation condition, two compounds introduced together [6] | pH (acidic condition) under which the fluorescent intensity increases ([4]; FIG. 1 / FIG. 9)
1 | CCCCCN1C(=O)c2cccc3c(N4CCN(CCN)CC4)ccc(c23)C1=O [Compound 4b, 2-(4-(1,3-dioxo-2-pentyl-2,3-dihydro-1H-benzo[de]isoquinolin-6-yl)piperazin-1-yl)ethane-1-amine hydrochloride salt] | low | low | enhancement of the fluorescent intensities was observed | enhancement of the fluorescent intensities was observed | high | decreased | useful for detecting autophagy using not only fluorescent microscopy but also flow cytometry | granular points stained only by Compound 4b and granular points co-stained by Compound 4b and Compound 13 |  |  |  |  | 
2 | CCCCCN1C(=O)c2cccc3c(NCCCCCN)ccc(c23)C1=O [Compound 6h, hydrochloride salt] | low | low |  |  | high | did not decrease |  |  | no pH dependence | ring-shaped fluorescent emission | enhancement of the fluorescent intensity was observed | granular points stained only by Compound 6h and granular points co-stained by Compound 6h and Compound 11 | 
3 | CCCCCN1C(=O)c2ccc3c4cccc5c(N6CCN(CCN)CC6)ccc(c6ccc(c2c36)C1=O)c54 [Compound 11, 8-(4-(2-aminoethyl)piperazin-1-yl)-2-pentyl-1H-benzo[10,5]anthra[2,1,9-def]isoquinolin-1,3(2H)-dione] |  |  |  |  |  |  |  |  |  |  |  | granular points co-stained by Compound 6h and Compound 11 | ≤ 6
4 | CCCCCN1C(=O)c2ccc3c4cccc5c(NCCCCCN)ccc(c6ccc(c2c36)C1=O)c54 [Compound 13, 5-((1,3-dioxo-2-pentyl-2,3-dihydro-1H-benzo[10,5]anthra[2,1,9-def]isoquinolin-8-yl)amino)pentane-1-amine hydrochloric salt] |  |  |  |  |  |  |  | granular points co-stained by Compound 4b and Compound 13 | no pH dependence |  |  |  | 
